Source: patent US8124653B2, “Methods and compositions for the treatment of attention deficit hyperactivity disorder and hyperphenylalanemia” (The Board of Regents of The University of Texas System, priority 2004, dated 2012)
Several values for one entry are separate records, joined by “and”; a condition that tells them apart may be missing. Equal values may be shown once.

Assays:
normal mice = experiment: Levels of metabolites in mouse brain following BH4 and 6-methyl BH4 treatment, normal mice; assay type: in vivo; conditions: Non PKU mice, single dose IM 100 mg/kg, after 1 hr; one line per animal
Method: (§1) To comparatively investigate the CNS effects of BH4 and methyl BH4, we used mice both with and without PKU. A single dose of either compound was given IM, 100 mg/kg to PKU afflicted and normal mice, with control groups receiving buffer only. After 1 hr, a time sufficient to observe changes in brain chemistry, the mice were sacrificed, and brains were sent out for analysis of 3-O-methyldopa (“3OMD”), 5-hydroxytryptamine ([…]) (serotonin), dihydroxybenzoic acid (“DHBA”), dopamine (“DA”), dihydroxyphenylacetic acid (“DOPAC”), hydroxyindoleacetic acid (“HIAA”), homovanilic acid (“HVA”), and methoxyhydroxyphenylglycol (“MPHG”) levels.

PKU afflicted mice = experiment: Levels of metabolites in mouse brain following BH4 and 6-methyl BH4 treatment, PKU mice; assay type: in vivo; conditions: for 3OMD level in brain / 5HT level in brain / DA level in brain / DOPAC level in brain / HIAA level in brain / HVA level in brain / MPHG level in brain: PKU mice, single dose IM 100 mg/kg, after 1 hr, one line per animal
Method: as §1

[1] = tested on: release of neurotransmitter amines; conditions: U.S. Pat. No. 5,606,020 to Watanabe et al.; cited from earlier work
patients with PKU = experiment: Oral BH4 loading in patients with PKU, blood Phe and tyrosine by tandem MS/MS (Example 2); assay type: in vivo, human
Method: This study included 15 males and 10 females with PKU. There were 13 subjects with “classical” PKU (based on blood Phe levels greater than 20 mg/dL) and 12 with “atypical” PKU (blood Phe 6.0-20 mg/dL). The mean age of the subjects was 16.6 years with a range from 6 months to 43 years. All subjects were on a restricted Phe diet, except four subjects with atypical PKU, who had discontinued diet treatment. […] Tetrahydrobiopterin (BH4) was obtained from Schircks Laboratories, Jena, Switzerland. The subjects were given BH4 10 mg/kg or 20 mg/kg by mouth after baseline blood Phe and tyrosine were drawn. Blood Phe and tyrosine were taken at 4, 8, and 24 hours and determined using tandem MS/MS (Neogen).

PKU patients = experiment: Single oral BH4 dose in PKU patients, blood Phe and tyrosine response (Example 1); assay type: in vivo, human; conditions: single oral 10 mg/kg, responder = Phe reduction 25% or greater with tyrosine increase 25% or greater within 24 hours
Method: PKU patients were administered a single oral dose of 10 mg/kg BH4, and blood levels of both Phe and tyrosine were monitored at 0, 4, 8, 24 hours post-dose. In this regard, it should be noted that this is half the dose administered by previous investigators.

SMILES	3OMD level in brain (normal mice)	5HT level in brain (normal mice)	DA level in brain (normal mice)	DOPAC level in brain (normal mice)	HIAA level in brain (normal mice)	HVA level in brain (normal mice)	MPHG level in brain (normal mice)	3OMD level in brain (PKU afflicted mice)	5HT level in brain (PKU afflicted mice)	DA level in brain (PKU afflicted mice)	DOPAC level in brain (PKU afflicted mice)	HIAA level in brain (PKU afflicted mice)	HVA level in brain (PKU afflicted mice)	MPHG level in brain (PKU afflicted mice)	other results
CC1CNc2nc(N)[nH]c(=O)c2N1 (centres unmarked) [6-Me BH4, 6-methyl-tetrahydropterin]	0.57 nmol/g wet weight and 0.29 nmol/g wet weight and 0.36 nmol/g wet weight and 0.44 nmol/g wet weight and 114.5 nmol/l and 87.7 nmol/l and 58.2 nmol/l and 71.7 nmol/l	1.07 nmol/g wet weight and 1.31 nmol/g wet weight and 1.21 nmol/g wet weight and 1.11 nmol/g wet weight and 214.3 nmol/l and 222.6 nmol/l and 261.1 nmol/l and 242.3 nmol/l	10.86 nmol/g wet weight and 10.26 nmol/g wet weight and 11.50 nmol/g wet weight and 10.56 nmol/g wet weight and 2172.4 nmol/l and 2112.1 nmol/l and 2051.2 nmol/l and 2300.5 nmol/l	0.61 nmol/g wet weight and 0.65 nmol/g wet weight and 0.66 nmol/g wet weight and 0.59 nmol/g wet weight and 121.6 nmol/l and 118.9 nmol/l and 129.6 nmol/l and 132.5 nmol/l	3.09 nmol/g wet weight and 3.56 nmol/g wet weight and 3.65 nmol/g wet weight and 3.22 nmol/g wet weight and 617.3 nmol/l and 643.9 nmol/l and 712.0 nmol/l and 730.5 nmol/l	1.26 nmol/g wet weight and 0.99 nmol/g wet weight and 1.20 nmol/g wet weight and 1.28 nmol/g wet weight and 252.9 nmol/l and 256.9 nmol/l and 197.1 nmol/l and 240.6 nmol/l	0.31 nmol/g wet weight and 0.26 nmol/g wet weight and 0.30 nmol/g wet weight and 0.29 nmol/g wet weight and 62.9 nmol/l and 58.9 nmol/l and 51.2 nmol/l and 59.7 nmol/l	0.39 nmol/g wet weight and 0.26 nmol/g wet weight and 0.17 nmol/g wet weight and 0.47 nmol/g wet weight and 77.7 nmol/l and 51.9 nmol/l and 34.9 nmol/l and 94.1 nmol/l	0.20 nmol/g wet weight and 0.15 nmol/g wet weight and 0.28 nmol/g wet weight and 0.24 nmol/g wet weight and 40.0 nmol/l and 30.0 nmol/l and 56.7 nmol/l and 47.6 nmol/l	10.16 nmol/g wet weight and 7.14 nmol/g wet weight and 6.46 nmol/g wet weight and 7.27 nmol/g wet weight and 2031.2 nmol/l and 1427.4 nmol/l and 1292.6 nmol/l and 1454.4 nmol/l	0.51 nmol/g wet weight and 0.40 nmol/g wet weight and 0.52 nmol/g wet weight and 0.48 nmol/g wet weight and 101.7 nmol/l and 80.6 nmol/l and 104.5 nmol/l and 95.6 nmol/l	1.70 nmol/g wet weight and 1.03 nmol/g wet weight and 1.64 nmol/g wet weight and 1.41 nmol/g wet weight and 340.4 nmol/l and 205.6 nmol/l and 328.1 nmol/l and 282.2 nmol/l	1.18 nmol/g wet weight and 0.94 nmol/g wet weight and 0.92 nmol/g wet weight and 0.91 nmol/g wet weight and 236.9 nmol/l and 187.2 nmol/l and 184.5 nmol/l and 182.1 nmol/l	0.36 nmol/g wet weight and 0.26 nmol/g wet weight and 0.32 nmol/g wet weight and 0.18 nmol/g wet weight and 71.2 nmol/l and 52.1 nmol/l and 63.2 nmol/l and 36.3 nmol/l	Overall effect on CNS chemistry, compared with BH4 (PKU afflicted mice; PKU and normal mice, IM 100 mg/kg, 1 hr, summary of Tables 5 and 6): greater effect on CNS chemistry; Ability to traverse the blood brain barrier, as compared to BH4 (PKU afflicted mice; inferred from brain metabolite levels, PKU and normal mice): better ability to traverse the blood brain barrier
C[C@H](O)[C@H](O)[C@H]1CNc2nc(N)[nH]c(=O)c2N1 [6R-BH4]	–	–	–	–	–	–	–	–	–	–	–	–	–	–	Release and liberation of neurotransmitter amines such as dopamine, norepinephrine and serotonin [1]: enhances the release and liberation of neurotransmitter amines
C[C@H](O)[C@H](O)[C@H]1CNc2nc(N)[nH]c(=O)c2N1 [BH4, Tetrahydrobiopterin]	0.58 nmol/g wet weight and 0.27 nmol/g wet weight and 0.60 nmol/g wet weight and 0.41 nmol/g wet weight and 115.6 nmol/l and 53.3 nmol/l and 119.7 nmol/l and 81.1 nmol/l	1.27 nmol/g wet weight and 1.21 nmol/g wet weight and 1.16 nmol/g wet weight and 1.53 nmol/g wet weight and 253.5 nmol/l and 242.3 nmol/l and 231.2 nmol/l and 305.2 nmol/l	9.06 nmol/g wet weight and 9.56 nmol/g wet weight and 9.63 nmol/g wet weight and 9.93 nmol/g wet weight and 1811.4 nmol/l and 1912.5 nmol/l and 1926.7 nmol/l and 1985.9 nmol/l	0.68 nmol/g wet weight and 0.62 nmol/g wet weight and 0.72 nmol/g wet weight and 0.79 nmol/g wet weight and 136.6 nmol/l and 124.4 nmol/l and 143.4 nmol/l and 158.6 nmol/l	3.49 nmol/g wet weight and 3.23 nmol/g wet weight and 3.19 nmol/g wet weight and 3.58 nmol/g wet weight and 697.5 nmol/l and 646.1 nmol/l and 638.7 nmol/l and 716.9 nmol/l	1.08 nmol/g wet weight and 1.09 nmol/g wet weight and 1.22 nmol/g wet weight and 1.18 nmol/g wet weight and 216.9 nmol/l and 217.7 nmol/l and 243.0 nmol/l and 236.6 nmol/l	0.36 nmol/g wet weight and 0.30 nmol/g wet weight and 0.40 nmol/g wet weight and 0.33 nmol/g wet weight and 72.5 nmol/l and 60.6 nmol/l and 80.2 nmol/l and 66.7 nmol/l	0.48 nmol/g wet weight and 0.16 nmol/g wet weight and 0.09 nmol/g wet weight and 0.55 nmol/g wet weight and 95.1 nmol/l and 32.9 nmol/l and 18.2 nmol/l and 110.4 nmol/l	0.16 nmol/g wet weight and 0.23 nmol/g wet weight and 0.15 nmol/g wet weight and 0.24 nmol/g wet weight and 31.5 nmol/l and 45.7 nmol/l and 30.4 nmol/l and 48.3 nmol/l	6.28 nmol/g wet weight and 9.48 nmol/g wet weight and 6.91 nmol/g wet weight and 8.08 nmol/g wet weight and 1256.0 nmol/l and 1896.3 nmol/l and 1382.2 nmol/l and 1616.2 nmol/l	0.40 nmol/g wet weight and 0.53 nmol/g wet weight and 0.51 nmol/g wet weight and 0.37 nmol/g wet weight and 80.9 nmol/l and 105.7 nmol/l and 101.0 nmol/l and 73.1 nmol/l	0.91 nmol/g wet weight and 1.68 nmol/g wet weight and 0.94 nmol/g wet weight and 1.45 nmol/g wet weight and 181.1 nmol/l and 336.9 nmol/l and 188.0 nmol/l and 290.6 nmol/l	0.80 nmol/g wet weight and 1.04 nmol/g wet weight and 0.77 nmol/g wet weight and 0.94 nmol/g wet weight and 160.6 nmol/l and 207.0 nmol/l and 153.6 nmol/l and 188.7 nmol/l	0.18 nmol/g wet weight and 0.21 nmol/g wet weight and 0.26 nmol/g wet weight and 0.16 nmol/g wet weight and 35.2 nmol/l and 42.9 nmol/l and 51.6 nmol/l and 31.6 nmol/l	Number of classical PKU subjects who responded to BH4 (patients with PKU; 13 subjects with classical PKU (blood Phe greater than 20 mg/dL)): 6; Drop in blood Phe level (patients with PKU; non-responding patients with R261Q allele challenged again with 20 mg/kg BH4): 10%; Mean decline in blood Phe (patients with PKU; responders, after BH4 loading): 53.7%; Mean blood Phe level after BH4 loading (patients with PKU; responders, prior to BH4 12.2 mg/dL): 6.6 mg/dL; Mean blood Phe level after BH4 loading (patients with PKU; responders, prior to BH4 732 mmol/L, unit of the source corrected): 396 µM; Number of Responders (PKU patients; Atypical PKU, blood Phe 6-20 mg/dl, 9 subjects): 9; Number of Responders (PKU patients; Classic PKU, blood Phe 20-50 mg/dl, 6 subjects): 0
